Patent publication US20200345805A1, “COMPOSITIONS AND METHODS USEABLE FOR TREATMENT OF DRY EYE” (priority 2019, published 2020)
Non-standard residues stand in square brackets, D forms with d. Residues, ends and D or L forms follow the SMILES beside them. Cya = N[C@@H](CS(=O)(=O)O)C(=O)O

System: Integrin αMβ2
Experiment: Expression of integrin αMβ2 in ischemic retinopathy of prematurity (ROP) mice after Risuteganib treatment
Assay type: in vivo
Details: FIG. 1
From the text: FIG. 1 is a graphic showing expression of integrin αMβ2 in ischemic retinopathy of prematurity (ROP) mice after Risuteganib treatment. Risuteganib is a small peptide that acts as an integrin inhibitor. Risuteganib targets multiple integrin subunits, including Integrin αMβ2 which is sometimes referred to as the “compliment 3 receptor” and is actively involved in inflammatory pathways and, in particular, the compliment 3 pathway. […] By causing such inhibition of Integrin αMβ2 Risuteganib may interfere with leucocyte adhesion and trans-endothelial migration, thereby resulting in decreased inflammation and improvement in the symptoms of Dry Eye.

C[C@@H](O)[C@H](NC(=O)[C@H](CS(=O)(=O)O)NC(=O)CNC(=O)[C@H](CCCNC(=N)N)NC(=O)CN)C(=O)N1CCC[C@H]1C(=O)O [Risuteganib, Glycyl-L-arginylglycyl-3-sulfo-L-alanyl-L-threonyl-L-proline] (H-GRG[Cya]TP-OH)
expression of Integrin αMβ2: decreases expression
